These are literature values, as cited in paper PMC9780888, “4-Isobutylmethcathinone—A Novel Synthetic Cathinone with High In Vitro Cytotoxicity and Strong Receptor Binding Preference of Enantiomers” (Pharmaceuticals, 2022).

One data set has as its system SH-SY5Y cells. The arrangement: method as in PMID 31473217. As to conditions: 24 h of exposure ref 20; cited from earlier work.
Data set [1] has as its system DAR2-like family receptors vs DAR1-like family of receptors. As to conditions: cited from earlier work.
In another data set the test system is HTR receptor. The arrangement: method as in PMID 22897747. The conditions noted are these: cited from earlier work.
The next data set has as its system SERT. The conditions noted are these: S- versus R-enantiomer, 13 in b3; cited from earlier work.
Data set [2] relates to neuronal differentiated SH-SY5Y cells. The arrangement: method as in PMID 25624004. As to conditions: 24-h exposure, ToxiLight BioAssay ref 30; cited from earlier work.
The test system of the next data set is HTR2A. The arrangement: method as in PMID 22897747. The conditions noted are these: cited from earlier work.

For `CNC(C)C(=O)c1ccc(C)c(C)c1` (stereo not drawn) [3,4-DMMC], the IC50 – broadly, the concentration at which inhibition is half-maximal – in the data set on SH-SY5Y cells was above 1 mM.

With `NCCc1ccc(O)c(O)c1` [DA, dopamine], the “affinity of DAR2-like family receptors relative to DAR1-like family” value in data set [1] is listed as 10-100 fold. For `CCNC(C)Cc1ccc2c(c1)OCO2` (stereo not drawn) [MDEA, 3,4-methylenedioxy-N-ethylamphetamine], the “HTR receptor binding activity” value in the data set on HTR receptor is listed as “has not been demonstrated”.

Consider `CNC(C)Cc1ccc2c(c1)OCO2` (stereo not drawn) [MDMA, 3,4-methylenedioxymethamphetamine], for which the “HTR receptor binding activity” value in the data set on HTR receptor was “has not been demonstrated”. Regarding `CN[C@@H](C)C(=O)c1ccc(C)cc1` [S-mephedrone], the “potency as SERT releaser relative to R-mephedrone” value with SERT is 40 times.

`CCCC(C(=O)c1ccccc1)N1CCCC1` (stereo not drawn) [alpha-PVP]: the “reported value for mitochondrial dysfunction” value in data set [2] is recorded as “above 100 mM”. As to `CNC(C)C(=O)c1ccc(F)cc1` (stereo not drawn) [flephedrone], in the data set with HTR2A, the HTR2A-binding activity entry was “has been previously described”. `CNC(C)C(=O)c1ccc(C)cc1` (stereo not drawn) [mephedrone]: the HTR2A-binding activity result in the data set with HTR2A is “has been previously described”. Turning to `CNC(C)C(=O)c1ccccc1` (stereo not drawn) [methcathinone], the HTR2A-binding activity result in the data set with HTR2A is given as “has been previously described”.
